# From publication PMC7579403, “POTN: A Human Leukocyte Antigen-A2 Immunogenic Peptides Screening Model and Its Applications in Tumor Antigens Prediction” (Frontiers in Immunology, 2020)
# How the values were obtained:
# [1] = system: CD3+CD8+ T cells from HLA-A2+ healthy donors; assay: ICS assay for immunogenicity: IFN-γ production of CD3+CD8+ T cells from peptide-stimulated PBMCs; format: cell-based, human; conditions: for Immunogenicity: response ratio of each peptide in five donors: percentages of IFN-γ+-secreting CD8+ T cells higher than negative control, PBMCs stimulated 10 μg/mL once-weekly 3 weeks
# Procedure: We determined whether the high-binding affinity peptides elicited a T cell response in peripheral blood samples from five HLA-A2^+ healthy donors. The blood samples were obtained from Henan Red Cross Blood Center (Zhengzhou, China) with the approval of the Institutional Ethics Review Board. All research was performed under the approval of the Ethics Committee of Zhengzhou University. An ICS assay was used to quantify IFN-γ production of CD3^+CD8^+ T cells. Peripheral blood mononuclear cells (PBMCs) were stimulated by each peptide (10 μg/mL) once-weekly for 3 weeks according to our previous work ([59]). On day 21, the induced T cells from the PBMCs were used as effector cells, and T2 cells were incubated with the synthesized peptides (50 μg/mL) for 4 h as the stimulator cells. The effector cells (1 × 10^6) and stimulator cells (1 × 10^6) were co-incubated for 3 h, and brefeldin A (2 μg/mL, Sigma-Aldrich, USA) was added to block the release of produced cytokines for another 5 h at 37°C and 5% CO2. The cells were washed and stained with eFlour 710 labeled anti-human CD3 antibody and APC-labeled anti-human CD8 antibody (eBioscience) for 30 min at 4°C before fixation and permeabilization. Permeabilized cells were intracellularly stained with the PE-labeled anti-human IFN-γ antibody (BioLegend, Inc., USA) for 30 min on ice in the dark. Cells were resuspended in buffer for acquisition and analysis using a flow cytometer (FACSCalibur, Becton Dickinson).
# Next, we examined the T cell responses of the 13 synthesized peptides with high binding affinity by detecting the percentages of IFN-γ^+ CD8^+ T cells from five HLA-A2^+ healthy donors. A higher percentage of IFN-γ^+ CD8^+ T cells in the total CD8^+ T cell population than that of the negative control indicated an immunogenic peptide. In donor 1, 12 were immunogenic ( Figure 5B ); in donor 2, eight peptides were immunogenic ( Figure 5C ); in donor 3, 10 peptides were immunogenic ( Figure 5D ); in donor 4, six peptides were immunogenic ( Figure 5E ); and in donor 5, 12 peptides were immunogenic ( Figure 5F ). […] In other words, any of the 13 high-affinity peptides could stimulate a T lymphocyte response in at least one donor ( Figures 5G, H ).
# HLA-A2 molecule = target: T1, HLA-A2 molecule (Homo sapiens, UniProt P04439, D140Y/D185E/D98H/E176V/E277Q/G131W/G231S/I119V/I121R/I166T/I218V/L300P/L318F/N151K/N90K/P208A/P217A/Q86G/Q94H/R138H/R169H/T345S); assay: T2 binding assay (fluorescence index, FI); conditions: T2 cells, peptide 50 μg/mL, human β2-microglobulin 3 µg/mL, 37°C 18 h, anti-HLA-A2 BB7.2 PE-cy7, flow cytometry; class by FI
# T1 construct: The T2 cell line (HLA-A2) was supplied by Professor Yuzhang Wu; endogenous in cells; host or cells: T2 cell line (HLA-A2); exogenous human β2-microglobulin from Merck
# Procedure: The T2 binding assay was used to determine the binding affinity of the candidate peptides and HLA-A2 molecule by using a previously described protocol ([27]). The T2 cell line (HLA-A2) was supplied by Professor Yuzhang Wu (Third Military Medical University, Chongqing, China). […] The T2 cells were washed twice and incubated with the anti-human HLA-A2-PE-cy7 antibody (BB7.2, eBioscience, USA) at 4°C for 30 min. The mean fluorescence intensity (FI) of each group was analyzed by flow cytometry (FACSCalibur, Becton-Dickinson, USA). Based on the FI, the binding affinity of the candidate peptides toward HLA-A2 molecule was calculated by FI =a−b/b where a is the mean PE-cy7 FI with the peptide and b is the mean PE-cy7 FI without the peptide.
# T cell response = system: T cell response; set-up: method as in PMID 29720506, PMID 15564450, PMID 18753217, PMID 21883919, PMID 11984506; conditions: pairs with only one amino acid different at P3; ref [62]–[66]; cited from earlier work
Sequence,Immunogenicity: response ratio of each peptide in five donors [1],Binding (HLA-A2 molecule),Immunogenicity (immunogenic / non-immunogenic) (T cell response),"T cell response in donors ([1]; IFN-γ+ CD8+ T cells, five HLA-A2+ healthy donors)"
"ALDEKVAEL [CT-X candidate nonamer predicted by POTN, synthesized]",4/5,++ (FI ≥ 1.5),–,–
"ALSTVLPGL [CT-X candidate nonamer predicted by POTN, synthesized]",2/5,++ (FI ≥ 1.5),–,–
"ALSVMGVYV [CT-X candidate nonamer predicted by POTN, synthesized]",–,+ (FI ≥ 0.5 to < 1.5),–,–
"AMASASPSV [CT-X candidate nonamer predicted by POTN, synthesized]",3/5,++ (FI ≥ 1.5),–,–
EVKEKHEFL [literature peptide of a P3 pair],–,–,immunogenic,–
EVREKHEFL [literature peptide of a P3 pair],–,–,non-immunogenic,–
"FIDKLVESV [CT-X candidate nonamer predicted by POTN, synthesized]",5/5,++ (FI ≥ 1.5),–,–
"FLAKLNNTV [CT-X candidate nonamer predicted by POTN, synthesized; also in training set]",–,+ (FI ≥ 0.5 to < 1.5),–,–
"FLAMLKNTV [CT-X candidate nonamer predicted by POTN, synthesized]",–,+ (FI ≥ 0.5 to < 1.5),–,–
"FLSKLSSII [CT-X candidate nonamer predicted by POTN, synthesized]",–,- (FI < 0.5),–,–
"ILDRANQSV [CT-X candidate nonamer predicted by POTN, synthesized]",3/5,++ (FI ≥ 1.5),–,–
"KLSSIIPSA [CT-X candidate nonamer predicted by POTN, synthesized]",1/5,++ (FI ≥ 1.5),–,only elicited a response in donor 5
"KMAGELIKI [CT-X candidate nonamer predicted by POTN, synthesized]",4/5,++ (FI ≥ 1.5),–,–
"KVADLIHFL [CT-X candidate nonamer predicted by POTN, synthesized]",–,+ (FI ≥ 0.5 to < 1.5),–,–
"KVAELVHFL [CT-X candidate nonamer predicted by POTN, synthesized]",–,+ (FI ≥ 0.5 to < 1.5),–,–
"KVAKLVHFL [CT-X candidate nonamer predicted by POTN, synthesized]",–,+ (FI ≥ 0.5 to < 1.5),–,–
"LMDVQIPTA [CT-X candidate nonamer predicted by POTN, synthesized]",5/5,++ (FI ≥ 1.5),–,–
QLCDVMFYL [literature peptide of a P3 pair],–,–,immunogenic,–
QLRDVMFYL [literature peptide of a P3 pair],–,–,non-immunogenic,–
"SIDDLSFYV [CT-X candidate nonamer predicted by POTN, synthesized]",4/5,++ (FI ≥ 1.5),–,–
"TLDEKVAEL [CT-X candidate nonamer predicted by POTN, synthesized]",5/5,++ (FI ≥ 1.5),–,–
"TLDQVLDEV [CT-X candidate nonamer predicted by POTN, synthesized]",5/5,++ (FI ≥ 1.5),–,–
"VLSAVTPEL [CT-X candidate nonamer predicted by POTN, synthesized]",–,+ (FI ≥ 0.5 to < 1.5),–,–
"VLSNVLSGL [CT-X candidate nonamer predicted by POTN, synthesized]",–,+ (FI ≥ 0.5 to < 1.5),–,–
"VLSTAPPQL [CT-X candidate nonamer predicted by POTN, synthesized]",4/5,++ (FI ≥ 1.5),–,–
"YLATADMPA [CT-X candidate nonamer predicted by POTN, synthesized]",3/5,++ (FI ≥ 1.5),–,–
